The values below come from US9763941B2, “Method of treating melanoma by administration of pharmaceutical formulations of (S)-methyl (1-((4-(3-(5-chloro-2-fluoro-3-(methylsulfonamido)phenyl)-1-isopropyl-1H-pyrazol-4-yl)pyrimidin-2-yl)amino)propan-2-yl)carbamate” (Array BioPharma, Inc., priority 2011, dated 2017).

The nature of the series: aqueous solubility characteristics / BCS classification. It counts as physicochemical. The source says:
Upon emptying from the stomach, COMPOUND A has the tendency to quickly precipitate out of solution due to an abrupt solubility drop in intestinal pH. […] The present invention relates to orally bioavailable pharmaceutical solid dispersion formulations of COMPOUND A.
Therapeutic compounds with such solubility characteristics typically present pharmaceutical formulation scientists with a challenge while attempting to prepare oral formulations capable of improving oral bioavailability of the therapeutic compound. Such challenges in preparing solid oral dosage forms of COMPOUND A are overcome, according to the present invention, by formulating the compound as a solid dispersion.

Entries after “also recorded” stand apart in the source; their conditions may differ.

For `COC(=O)N[C@@H](C)CNc1nccc(-c2cn(C(C)C)nc2-c2cc(Cl)cc(NS(C)(=O)=O)c2F)n1` [COMPOUND A, (S)-methyl (1-((4-(3-(5-chloro-2-fluoro-3-(methylsulfonamido)phenyl)-1-isopropyl-1H-pyrazol-4-yl)pyrimidin-2-yl)amino)propan-2-yl)carbamate], the BCS class entry is “BCS class II”. In addition, the “solubility at low pH” value (low pH) is “higher solubility; also recorded: highly soluble”. For the same molecule, where the note is “weakly acidic and neutral pH”, the “aqueous solubility at weakly acidic and neutral pH” value is listed as “limited solubility; also recorded: poor aqueous solubility”.
